The values below come from patent publication US20130338142A1, “IMIDAZOPYRAZINE SYK INHIBITORS” (Gilead Connecticut, Inc., priority 2012, published 2013).

≈ marks a conversion by molar mass, not a printed value.

As a reminder, the IC50 is the concentration that gives 50% inhibition. Lower therefore signals greater potency in that assay. The term solubility denotes the dissolved amount per volume that the medium holds. A higher solubility goes with much dissolved substance. For orientation: melting point means the temperature of the solid-liquid transition.

Data set [1] has as its target Syk (Homo sapiens, UniProt P43405). In words: High throughput Syk assay (TR-FRET, KinEASE). The data set is classed as biochemical. The following applies: Syk TR-FRET assay of Example B2; 3 μM ATP, 0.5 nM Syk. As to the method: The following high throughput Syk assay was performed on the compounds of Table 1 as follows.
Syk activity was measured by detecting phosphorylated peptide substrate formation using antibody against phosphorylated peptide substrate. This is a time-resolved fluorescence resonance energy transfer (TR-FRET) immunoassay, based on the KinEASE Assay (Cisbio). […] Test compounds (in DMSO) were spotted into 384 well plates using a Labcyte® Echo 550 Liquid Handling System prior to addition of Syk enzyme and peptide substrate. Reaction solutions were delivered using a Multi-Flo (Bio-Tek Instruments). The enzyme and peptide solution was incubated with compound for 60 minutes at room temp before the reaction was initiated by the addition of ATP. […] The europium donor was excited using a 340-nm excitation filter with a 30-nm band pass. Energy transfer to the tracer was measured using a filter centered at 665 nm with a 10 nm bandpass. This signal was then referenced to the emission from europium peak, using a 615 nm, 10-nm bandpass filter. The “emission ratio” was calculated as the 665 nm signal divided by the 615 nm signal. Percentage of inhibition was calculated as below:
% Inhibition=100×(RatioSample−Ratio0% Inhibition)/(Ratio100% Inhibition−Ratio0% Inhibition)
Background: TR-FRET usually uses a lanthanide donor and a delayed reading to cut background.

Data set [2] in a line: Kinetic solubility study. The following applies: 37 °C, kinetic from dmso stock.
Method: The compounds tested (as listed in Table 2 below) were dissolved in dimethyl sulfoxide (DMSO) at a 10 mM concentration. A 3 μL sample aliquot of the DMSO solution is then added to 297 μL of desired aqueous media (pH 2, pH 5.4, and pH 7.4). The sample is then incubated for 24 hrs at 37° C. with shaking. After 24 hrs the samples are centrifuged, an aliquot of the supernatant liquid is removed and analyzed by HPLC. The compound concentration in the sample is determined by reference to a sample of the compound with known standard concentration.
The mark [3] stands for this setting: aqueous media, pH 2, aqueous buffer.
Setting [4] is: aqueous media, pH 5.4, aqueous buffer.
The mark [5] stands for this setting: aqueous media, pH 7.4, aqueous buffer.

In turn, `COc1cc(Nc2nc(-c3cnc4c(c3)NCCO4)cn3ccnc23)ccc1N1CCOCC1` [Compound 1, 6-(2,3-dihydro-1H-pyrido[2,3-b][1,4]oxazin-7-yl)-N-(3-methoxy-4-morpholinophenyl)imidazo[1,2-a]pyrazin-8-amine] came in with a concentration for half-maximal inhibition (IC50) in data set [1] of 3 nM. Also, the solubility at 24 h amounted to 98 µM (≈ 45 µg/mL) in data set [2] (setting [3]), 95 µM (≈ 43.7 µg/mL) in data set [2] (setting [4]) and 95 µM (≈ 43.7 µg/mL) in data set [2] (setting [5]).

As to `COc1cc(Nc2nc(-c3ccc4c(c3)CNCCO4)cn3ccnc23)ccc1N1CCOCC1` [Compound 3], the IC50 in data set [1] came out at 7 nM. Also, the solubility at 24 h in data set [2] (setting [3]), in data set [2] (setting [4]) and in data set [2] (setting [5]) was 100 µM (≈ 47.3 µg/mL) each time.

The molecule `COc1cc(Nc2nc(-c3ccc4c(c3)NCCO4)cn3ccnc23)ccc1N1CCN(C2COC2)CC1` [Compound 4, 6-(3,4-dihydro-2H-benzo[b][1,4]oxazin-6-yl)-N-(3-methoxy-4-(4-(oxetan-3-yl)piperazin-1-yl)phenyl)imidazo[1,2-a]pyrazin-8-amine] showed an IC50 in data set [1] of 4 nM. Further, the solubility at 24 h is 94 µM (≈ 48.3 µg/mL) in data set [2] (setting [3]), 94 µM (≈ 48.3 µg/mL) in data set [2] (setting [4]) and 57 µM (≈ 29.3 µg/mL) in data set [2] (setting [5]).

As for `COc1cc(Nc2nc(-c3ccc4c(c3)NCCO4)cn3ccnc23)ccc1N1CCOCC1` [Compound 14x, 6-(3,4-dihydro-2H-benzo[b][1,4]oxazin-6-yl)-N-(3-methoxy-4-moipholinophenyl)imidazo[1,2-a]pyrazin-8-amine, reference compound], the solubility at 24 h was 87 µM (≈ 39.9 µg/mL) in data set [2] (setting [3]), 10 µM (≈ 4.59 µg/mL) in data set [2] (setting [4]) and 8 µM (≈ 3.67 µg/mL) in data set [2] (setting [5]).

`c1cn2cc(-c3ccc4c(c3)NCCO4)nc(Nc3ccc(N4CCN(C5COC5)CC4)cc3)c2n1` [Compound 24, 6-(3,4-dihydro-2H-benzo[b][1,4]oxazin-6-yl)-N-(4-(4-(oxetan-3-yl)piperazin-1-yl)phenyl)imidazo[1,2-a]pyrazin-8-amine]: the results for the solubility at 24 h in data set [2] (setting [3]), in data set [2] (setting [4]) and in data set [2] (setting [5]) were 100 µM (≈ 48.4 µg/mL), 61 µM (≈ 29.5 µg/mL) and 33 µM (≈ 16 µg/mL), respectively.

Turning to `c1cn2cc(-c3cnc4c(c3)NCCO4)nc(Nc3ccc(N4CCOCC4)cc3)c2n1` [Compound 28x, 6-(2,3-dihydro-1H-pyrido[2,3-b][1,4]oxazin-7-yl)-N-(4-morpholinophenyl)imidazo[1,2-a]pyrazin-8-amine, reference compound], the solubility at 24 h in data set [2] (setting [3]) was determined as 90 µM (≈ 38.7 µg/mL); in data set [2] (setting [4]) it was 9 µM (≈ 3.87 µg/mL); in data set [2] (setting [5]) it was 9 µM (≈ 3.87 µg/mL).

On to `c1cn2cc(-c3cnc4c(c3)NCCO4)nc(Nc3ccc(N4CCN5CCOC[C@@H]5C4)cc3)c2n1` [Compound 82, (S)-6-(2,3-dihydro-1H-pyrido[2,3-b][1,4]oxazin-7-yl)-N-(4-(hexahydropyrazino[2,1-c][1,4]oxazin-8(1H)-yl)phenyl)imidazo[1,2-a]pyrazin-8-amine], for which, in data set [1], the IC50 was determined as 3 nM. In other words, the single-digit nanomolar range.

Take `COc1cc(Nc2nc(-c3cnc4c(c3)NCCO4)cn3ccnc23)ccc1N1CCN(C2COC2)C(C)(C)C1` [Compound 84, 6-(2,3-dihydro-1H-pyrido[2,3-b][1,4]oxazin-7-yl)-N-(4-(3,3-dimethyl-4-(oxetan-3-yl)piperazin-1-yl)-3-methoxyphenyl)imidazo[1,2-a]pyrazin-8-amine]: the IC50 in data set [1] came to 10 nM.

For the molecule `COc1cc(Nc2nc(-c3cnc4c(c3)NCCO4)cn3ccnc23)ccc1N1CCN(C(=O)[C@H](C)O)CC1` [Compound 85, (S)-1-(4-(4-((6-(2,3-dihydro-1H-pyrido[2,3-b][1,4]oxazin-7-yl)imidazo[1,2-a]pyrazin-8-yl)amino)-2-methoxyphenyl)piperazin-1-yl)-2-hydroxypropan-1-one], half-maximal inhibition in data set [1] (IC50) required 3 nM.

For `COc1cc(Nc2nc(-c3ccc4cn[nH]c4c3)cn3ccnc23)ccc1N1CCOCC1` [Compound 90x, 6-(1H-indazol-6-yl)-N-(3-methoxy-4-morpholinophenyl)imidazo[1,2-a]pyrazin-8-amine, reference compound], the solubility at 24 h in data set [2] (pH 2, aqueous buffer) was found to be 94 µM (≈ 41.5 µg/mL); in data set [2] (pH 5.4, aqueous buffer), 3 µM (≈ 1.32 µg/mL); in data set [2] (pH 7.4, aqueous buffer), 3 µM (≈ 1.32 µg/mL).

`COc1cc(Nc2nc(-c3cnc4c(c3)NCCO4)cn3ccnc23)ccc1N1CC(C)(O)C1` [Compound 98, 1-(4-((6-(2,3-dihydro-1H-pyrido[2,3-b][1,4]oxazin-7-yl)imidazo[1,2-a]pyrazin-8-yl)amino)-2-methoxyphenyl)-3-methylazetidin-3-ol] yielded an IC50 in data set [1] of 33 nM.

For `COc1cc(Nc2nc(-c3cnc4c(c3)NCCO4)cn3ccnc23)ccc1N1CC2COCC2C1` (stereo not drawn) [Compound 99, 6-(2,3-dihydro-1H-pyrido[2,3-b][1,4]oxazin-7-yl)-N-(3-methoxy-4-(tetrahydro-1H-furo[3,4-c]pyrrol-5(3H)-yl)phenyl)imidazo[1,2-a]pyrazin-8-amine], inhibition in data set [1] was half-maximal at 16 nM (IC50).

On to `OC1(c2ccc(Nc3nc(-c4cnc5c(c4)NCCO5)cn4ccnc34)cc2)CCC1` [Compound 101, 1-(4-((6-(2,3-dihydro-1H-pyrido[2,3-b][1,4]oxazin-7-yl)imidazo[1,2-a]pyrazin-8-yl)amino)phenyl)cyclobutanol], for which half-maximal inhibition in data set [1] (IC50) required 7 nM.

Regarding `OC1(c2ccc(Nc3nc(-c4cnc5c(c4)NCCO5)cn4ccnc34)cc2)COC1` [Compound 102, 3-(4-((6-(2,3-dihydro-1H-pyrido[2,3-b][1,4]oxazin-7-yl)imidazo[1,2-a]pyrazin-8-yl)amino)phenyl)oxetan-3-ol], the IC50 in data set [1] is 8 nM.

In turn, `COc1cc(Nc2nc(-c3cnc4c(c3)NCCO4)cn3ccnc23)ccc1N1CCC2(CC1)OCCO2` [Compound 103, 6-(2,3-dihydro-1H-pyrido[2,3-b][1,4]oxazin-7-yl)-N-(3-methoxy-4-(1,4-dioxa-8-azaspiro[4.5]decan-8-yl)phenyl)imidazo[1,2-a]pyrazin-8-amine] yielded an IC50 in data set [1] of 3 nM. This IC50 lies about 2.7-fold lower than the previous one.

Regarding `COc1cc(Nc2nc(-c3cnc4c(c3)NCCO4)cn3ccnc23)ccc1N1CCC(=O)CC1` [Compound 104, 1-(4-((6-(2,3-dihydro-1H-pyrido[2,3-b][1,4]oxazin-7-yl)imidazo[1,2-a]pyrazin-8-yl)amino)-2-methoxyphenyl)piperidin-4-one], the IC50 in data set [1] came out at 4 nM.

Turning to `COc1cc(Nc2nc(-c3cnc4c(c3)NCCO4)cn3ccnc23)ccc1N1CCC(=NO)CC1` [Compound 105, 1-(4-((6-(2,3-dihydro-1H-pyrido[2,3-b][1,4]oxazin-7-yl)imidazo[1,2-a]pyrazin-8-yl)amino)-2-methoxyphenyl)piperidin-4-one oxime], the IC50 in data set [1] worked out at 5 nM.

Regarding `CON=C1CCN(c2ccc(Nc3nc(-c4cnc5c(c4)NCCO5)cn4ccnc34)cc2OC)CC1` [Compound 106, 1-(4-((6-(2,3-dihydro-1H-pyrido[2,3-b][1,4]oxazin-7-yl)imidazo[1,2-a]pyrazin-8-yl)amino)-2-methoxyphenyl)piperidin-4-one O-methyl oxime], inhibition in data set [1] was half-maximal at 6 nM (IC50).

The molecule `CO/N=C(\C)c1ccc(Nc2nc(-c3cnc4c(c3)NCCO4)cn3ccnc23)cc1` [Compound 107, (E)-1-(4-((6-(2,3-dihydro-1H-pyrido[2,3-b][1,4]oxazin-7-yl)imidazo[1,2-a]pyrazin-8-yl)amino)phenyl)ethanone O-methyl oxime] returned an IC50 in data set [1] of 17 nM.

For the molecule `CO/N=C(/C)c1ccc(Nc2nc(-c3cnc4c(c3)NCCO4)cn3ccnc23)cc1` [Compound 108, (Z)-1-(4-((6-(2,3-dihydro-1H-pyrido[2,3-b][1,4]oxazin-7-yl)imidazo[1,2-a]pyrazin-8-yl)amino)phenyl)ethanone O-methyl oxime], the IC50 in data set [1] was determined as 7 nM.

In turn, `COc1cc(Nc2nc(-c3cnc4c(c3)NCCO4)cn3ccnc23)ccc1N1CCOCC1` [Example 5a, 6-(2,3-dihydro-1H-pyrido[2,3-b][1,4]oxazin-7-yl)-N-(3-methoxy-4-morpholinophenyl)imidazo[1,2-a]pyrazin-8-amine] returned a melting point of 233 to 234 °C.

`c1cn2cc(-c3ccc4c(c3)NCCO4)nc(Nc3ccc(N4CCN(C5COC5)CC4)cc3)c2n1` [Example 24, 6-(3,4-dihydro-2H-benzo[b][1,4]oxazin-6-yl)-N-(4-(4-(oxetan-3-yl)piperazin-1-yl)phenyl)imidazo[1,2-a]pyrazin-8-amine] registered an IC50 in data set [1] of 11 nM.
